Patent US8198307B2, “Imidazole derivatives having aryl piperidine substituent, method for preparation thereof and pharmaceutical compositions containing same” (Korea Research Institute of Chemical Technology, priority 2007, dated 2012)
Like-named read-outs stand apart in the source and are kept apart here.

Target: T1, MCH R1 (melanine-concentrating hormone receptor-1) (Homo sapiens, UniProt Q99705)
T1 construct: purchased Euroscreen, Gosselies, Belgium
Test: Inhibitory effects on MCH R1 binding (Eu-MCH time-resolved fluorescence binding assay)
Experimental: First, MCH R1 (melanine-concentrating hormone receptor-1; Euroscreen, Gosselies, Belgium), 1 μM Europium-labeled melanine-concentrating hormone (Eu-MCH, PerkinElmer, Turku, Finland) and 1 mM melanine-concentrating hormone (MCH, #070-47, Phoenix, Belmont Calif., USA) were kept at 4° C. for ready use. 1 μM Eu-MCH and 1 mM MCH were diluted with an experimental solution (25 mM HEPES pH 7.4, 5 mM MgCl2, 1 mM CaCl2 and 0.5% (w/w) BSA) to 8 nM (final reaction concentration: 2 nM) and 2 μM (final reaction concentration: 0.5 μM), respectively. The compounds prepared in the Examples (“Test compounds”) were dissolved in the experimental solution in concentration of 4 nM to 40 μM (final reaction concentration: 1 nM to 10 μM). MCH R1 (200 assays/vial) was homogeneously dispersed in the experimental solution.
Then, 100 μl/well of the following reaction mixture was added to the wells of a microplate (Multiwell 96 well filter plates PN5020, Pall Co., Ann Arbor, Mich., USA) equipped with a filter paper, with an 8-channel pipette (multi 8-channel, Eppendorf, Hamburg, Germany). Specifically, to the wells of a non-specific binding control group, 25 μl of Eu-MCH, 50 μl of MCH R1 and 25 μl of MCH were added. Further, 25 μl of the experimental solution supplemented with 10% (w/w) of DMSO, 25 μl of Eu-MCH and 50 μl of MCH R1 were added to the wells of a total binding control group, while 25 μl of the test compounds, 25 μl Eu-MCH and 50 μl of MCH R1 were added to the wells of an experimental group. Subsequently, the microplate was shaken gently for 15 seconds and kept at room temperature for 90 minutes to allow the reaction to take place. Then, the plate was washed with a microplate washer (EMBLA, Molecular Devices) by washing three times with 300 μl of a washing solution (25 mM HEPES pH 7.4, 5 mM MgCl2, 1 mM CaCl2) to remove the residual unreacted Eu-MCH. Moisture was removed from the bottom of the wells and 150 μl of dissociation solution (DELFIA Enhancement solution, PerkinElmer, Turku, Finland) was added to each well, followed by keeping the plate at room temperature for 2 to 4 hours. Subsequently, time-resolved fluorescence (TRF) values were measured with a multilabel counter (Victor2, PerkinElmer, Turku, Finland) (emission wave length: 615 nm, excitation wave length: 340 nm). The inhibition rate based on the time-resolved fluorescence data was calculated using the following Equation (I). Inhibition rate of time-resolved fluorescence (%)=[(Average TRF value of the total binding group−Time-resolved fluorescence value of the test compound)/(Average TRF value of the total binding group−Average TRF value of the non-specific binding group)]×100 (I)

[1] = concentration inhibiting the binding of MCH (Eu-MCH, 2 nM) to MCH R1 by 50% in vitro, TRF readout, test range 1 nM to 10 μM, read-out: IC50

T1 sequence (Q99705 whole entry, species assumed): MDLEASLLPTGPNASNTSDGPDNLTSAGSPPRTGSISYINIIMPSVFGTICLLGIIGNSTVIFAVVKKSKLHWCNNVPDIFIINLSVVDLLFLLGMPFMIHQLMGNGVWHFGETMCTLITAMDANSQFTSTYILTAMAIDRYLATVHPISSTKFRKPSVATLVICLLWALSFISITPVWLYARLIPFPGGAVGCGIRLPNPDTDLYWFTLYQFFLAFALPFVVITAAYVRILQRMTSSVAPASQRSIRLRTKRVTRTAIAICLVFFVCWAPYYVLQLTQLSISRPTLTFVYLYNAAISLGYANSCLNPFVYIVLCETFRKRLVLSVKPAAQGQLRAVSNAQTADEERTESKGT

SMILES | IC50 [1] [µM] | IC50 [µM]
CC(=O)Nc1cccc(C2CCN(CCCn3c(-c4ccc(Cl)cc4)nc4ccc(F)cc43)CC2)c1 [Example 31, 2-(4-chlorophenyl)-1-{3-[4-(3-acetylaminophenyl)piperidin-1-yl]propyl}-6-fluoro-1H-benzimidazole] | 0.011 | –
CC(=O)Nc1cccc(C2CCN(CCCn3c(-c4ccccc4)nc4ccc([N+](=O)[O-])cc43)CC2)c1 [Example 32, 2-phenyl-1-{3-[4-(3-acetylaminophenyl)piperidin-1-yl]propyl}-6-nitro-1H-benzimidazole] | 0.01 | –
CC(=O)Nc1cccc(C2CCN(CCCn3c(-c4ccccc4F)nc4ccc(Cl)cc43)CC2)c1 [Example 33, 2-(2-fluorophenyl)-1-{3-[4-(3-acetylaminophenyl)piperidin-1-yl]propyl}-6-chloro-1H-benzimidazole] | 0.148 | –
CC(=O)Nc1cccc(C2CCN(CCCn3c(-c4cccc(F)c4)nc4ccc(Cl)cc43)CC2)c1 [Example 34, 2-(3-fluorophenyl)-1-{3-[4-(3-acetylaminophenyl)piperidin-1-yl]propyl}-6-chloro-1H-benzimidazole] | 0.008 | –
CC(=O)Nc1cccc(C2CCN(CCCn3c(-c4ccc(Cl)cc4)nc4ccc(Br)cc43)CC2)c1 [Example 36, 2-(4-chlorophenyl)-1-{3-[4-(3-acetylaminophenyl)piperidin-1-yl]propyl}-6-bromo-1H-benzimidazole] | 0.017 | –
CC(=O)Nc1cccc(C2CCN(CCCn3c(-c4ccccc4Cl)nc4cc(C)c(C)cc43)CC2)c1 [Example 37, 2-(2-chlorophenyl)-1-{3-[4-(3-acetylaminophenyl)piperidin-1-yl]propyl}-5,6-dimethyl-1H-benzimidazole] | 0.039 | –
CC(=O)Nc1cccc(C2CCN(CCCn3c(-c4ccccc4Cl)nc4ccc([N+](=O)[O-])cc43)CC2)c1 [Example 40, 2-(2-chlorophenyl)-1-{3-[4-(3-acetylaminophenyl)piperidin-1-yl]propyl}-6-nitro-1H-benzimidazole] | 0.082 | –
CC(=O)Nc1cccc(C2CCN(CCCn3c(-c4cccc(Cl)c4)nc4ccc([N+](=O)[O-])cc43)CC2)c1 [Example 41, 2-(3-chlorophenyl)-1-{3-[4-(3-acetylaminophenyl)piperidin-1-yl]propyl}-6-nitro-1H-benzimidazole] | 0.635 | –
CC(=O)Nc1cccc(C2CCN(CCCn3c(-c4ccc(Cl)cc4)nc4ccc([N+](=O)[O-])cc43)CC2)c1 [Example 42, 2-(4-chlorophenyl)-1-{3-[4-(3-acetylaminophenyl)piperidin-1-yl]propyl}-6-nitro-1H-benzimidazole] | – | 0.111
CC(=O)Nc1cccc(C2CCN(CCCn3c(-c4cc(F)c(F)c(F)c4F)nc4ccccc43)CC2)c1 [Example 44, 2-(2,3,4,5-tetrafluorophenyl)-1-{3-[4-(3-acetylaminophenyl)piperidin-1-yl]propyl}-1H-benzimidazole] | 0.077 | –
CC(=O)Nc1cccc(C2CCN(CCCn3c(-c4ccc(-c5ccccc5)cc4)nc4ccccc43)CC2)c1 [Example 46, 2-(4-biphenyl)-1-{3-[4-(3-acetylaminophenyl)piperidin-1-yl]propyl}-1H-benzimidazole] | 0.008 | –
CC(=O)Nc1cccc(C2CCN(CCCn3c(-c4ccc(Oc5ccccc5)cc4)nc4ccccc43)CC2)c1 [Example 47, 2-(4-phenoxyphenyl)-1-{3-[4-(3-acetylaminophenyl)piperidin-1-yl]propyl}-1H-benzimidazole] | 0.042 | –
CC(=O)Nc1cccc(C2CCN(CCCn3c(-c4ccc(F)cc4)nc4ccccc43)CC2)c1 [Example 48, 2-(4-fluorophenyl)-1-{3-[4-(3-acetylaminophenyl)piperidin-1-yl]propyl}-1H-benzimidazole] | 0.056 | –
CC(=O)Nc1cccc(C2CCN(CCCn3c(-c4ccc(Cl)cc4)nc4cc(C)cc(C)c43)CC2)c1 [Example 49, 2-(4-chlorophenyl)-1-{3-[4-(3-acetylaminophenyl)piperidin-1-yl]propyl}-5,7-dimethyl-1H-benzimidazole] | 0.197 | –
CC(=O)Nc1cccc(C2CCN(CCCn3c(-c4ccc(C#N)cc4)nc4ccccc43)CC2)c1 [Example 51, 2-(4-cyanophenyl)-1-{3-[4-(3-acetylaminophenyl)piperidin-1-yl]propyl}-1H-benzimidazole] | 0.016 | –
CC(=O)Nc1cccc(C2CCN(CCCn3c(-c4cccc(C#N)c4)nc4ccccc43)CC2)c1 [Example 52, 2-(3-cyanophenyl)-1-{3-[4-(3-acetylaminophenyl)piperidin-1-yl]propyl}-1H-benzimidazole] | 0.015 | –
CC(=O)Nc1cccc(C2CCN(CCCn3c(-c4cccc([N+](=O)[O-])c4)nc4ccccc43)CC2)c1 [Example 55, 2-(3-nitrophenyl)-1-{3-[4-(3-acetylaminophenyl)piperidin-1-yl]propyl}-1H-benzimidazole] | 0.008 | –
COc1ccc(Cl)cc1-c1nc2ccccc2n1CCCN1CCC(c2cccc(NC(C)=O)c2)CC1 [Example 56, 2-(5-chloro-2-methoxyphenyl)-1-{3-[4-(3-acetylaminophenyl)piperidin-1-yl]propyl}-1H-benzimidazole] | 0.066 | –

More lines, main results first:

IC50 [1] [µM] | SMILES | IC50 [µM]
0.007 | CC(=O)Nc1cccc(C2CCN(CCCn3c(-c4cccc(Cl)c4)nc4ccc(Cl)cc43)CC2)c1 [Example 35, 2-(3-chlorophenyl)-1-{3-[4-(3-acetylaminophenyl)piperidin-1-yl]propyl}-6-chloro-1H-benzimidazole] | –
0.003 | CC(=O)Nc1cccc(C2CCN(CCCn3c(-c4cccc(Cl)c4)nc4cc(C)c(C)cc43)CC2)c1 [Example 38, 2-(3-chlorophenyl)-1-{3-[4-(3-acetylaminophenyl)piperidin-1-yl]propyl}-5,6-dimethyl-1H-benzimidazole] | –
0.007 | CC(=O)Nc1cccc(C2CCN(CCCn3c(-c4ccc(Cl)cc4)nc4c(C)c(C)ccc43)CC2)c1 [Example 39, 2-(4-chlorophenyl)-1-{3-[4-(3-acetylaminophenyl)piperidin-1-yl]propyl}-4,5-dimethyl-1H-benzimidazole] | –
0.003 | CC(=O)Nc1cccc(C2CCN(CCCn3c(-c4ccccc4)nc4ccc(Br)cc43)CC2)c1 [Example 43, 2-phenyl-1-{3-[4-(3-acetylaminophenyl)piperidin-1-yl]propyl}-6-bromo-1H-benzimidazole] | –
0.003 | CC(=O)Nc1cccc(C2CCN(CCCn3c(-c4ccc(C(F)(F)F)cc4)nc4ccccc43)CC2)c1 [Example 45, 2-(4-trifluoromethylphenyl)-1-{3-[4-(3-acetylaminophenyl)piperidin-1-yl]propyl}-1H-benzimidazole] | –
0.004 | CC(=O)Nc1cccc(C2CCN(CCCn3c(-c4ccc(F)c(F)c4)nc4ccccc43)CC2)c1 [Example 50, 2-(3,4-difluorophenyl)-1-{3-[4-(3-acetylaminophenyl)piperidin-1-yl]propyl}-1H-benzimidazole] | –
0.001 | CC(=O)Nc1cccc(C2CCN(CCCn3c(-c4ccc(Cl)cc4F)nc4ccccc43)CC2)c1 [Example 53, 2-(4-chloro-2-fluorophenyl)-1-{3-[4-(3-acetylaminophenyl)piperidin-1-yl]propyl}-1H-benzimidazole] | –
0.004 | CC(=O)Nc1cccc(C2CCN(CCCn3c(-c4ccc(F)cc4Cl)nc4ccccc43)CC2)c1 [Example 54, 2-(2-chloro-4-fluorophenyl)-1-{3-[4-(3-acetylaminophenyl)piperidin-1-yl]propyl}-1H-benzimidazole] | –
